Data set [1] concerns PANC02 murine pancreatic tumor cells. Briefly: Cell proliferation assay, PANC02. Format: cell-based. Here is the method:
(§1) The anti-angiogenesis and anti-proliferative activity of the conjugates described herein was evaluated by the effect of the conjugates on the proliferation of HUVEC, U87 and PANC02 cells.
(§2) HUVEC were plated onto 24-well plate (1×10^4 cells/well) in endothelial cell basal medium 2 (EBM-2; Cambrex, USA) supplemented with 5% fetal bovine serum (FBS). Following 24 hours of incubation (37° C.; 5% CO2) medium was replaced with Endothelial cell growth medium-2 (EGM-2; Cambrex, USA). U87 and PANC02 cells were plated onto 96 well plate (2×10^3 cells/well) in DMEM supplemented with 5% FBS and incubated for 24 hours (37° C.; 5% CO2). Following 24 hours of incubation the medium was replaced with DMEM containing 10% FBS. Cells were challenged with the tested compounds at serial concentrations for 72 hours. After incubation the number of HUVEC were counted by Coulter Counter and U87, and PANC02 cells were counted by XTT respectively.

The test system of data set [2] is HUVEC. Put plainly: cells. It counts as cell-based, human. Here is the method: as §1, §2
Data set [3] has as its system HUVEC. Briefly: Endothelial cell adhesion assay on fibrinogen coated plates. Format: cell-based, human. Here is the method: The ability of E-[c(RGDfk)2] and E-c(RGDfk) moieties (SEQ ID NOs: 2 and 41) in the conjugates to inhibit endothelial attachment to cellular matrix after conjugation, was assessed using an adhesion assay. Flat bottom 96-well culture plates (Nunc, Denmark) were coated with 0.5 μg/well fibrinogen overnight at 4° C. After washing three times with Phosphate buffered saline (PBS), the wells were blocked with 1% bovine serum albumin (BSA) for 1 hour at 37° C. and washed three times again with PBS. HUVEC were harvested in phosphate-buffered saline (137 mM NaCl, 2.7 mM KCl, 4.3 mM Na2HPO4, 1.4 mM KH2PO4, pH 7.3) with 2.5 mM EDTA and resuspended in EBM-2 serum-free media (Clonetics). HUVEC were incubated for 30 minutes, at room temperature, with the tested compounds. The treated HUVEC were plated at 5×10^4 cells per well and were allowed to attach for 1 hour at 37° C. After incubation, the unattached cells were removed by rinsing the wells with PBS. The attached cells were fixed with 3.7% formaldehyde, stained with 0.5% crystal violet and were imaged using Nikon TE2000E inverted microscope integrated with Nikon DS5 cooled CCD camera by 4× objective, brightfield technique. The number of attached cells was quantified with NIH ImageJ processing and analysis software. Non-specific binding was determined by adhesion of HUVEC cells, which were not incubated with any of the tested compounds, to BSA-coated plates.

Data set [4] has as its system HUVEC. Put plainly: Migration assay of HUVEC towards VEGF. Format: cell-based, human. The conditions noted are these: equivalent concentrations of 100 nM PTX; conjugate with 5 mol % E-[c(RGDfk)2], 2.6 mol % PTX; FIG. 14. Here is the method: The anti-angiogenesis activity of the conjugates was evaluated by examining the effect of the conjugates on the ability of HUVEC to migrate toward the Vascular Endothelial Growth Factor (VEGF).
Cell migration assay was performed using modified 8 μm Boyden chambers Transwells® (Costar Inc., USA) coated with 10 μg/ml fibronectin HUVEC (15×10^4 cells/100 μl) were challenged with the tested compounds that were added to the upper chamber of the transwells for 2 hours. Following incubation, cells were allowed to migrate to the underside of the chamber for 4 hours in the presence or absence of VEGF (20 ng/ml) in the lower chamber. Cells were then fixed and stained (Hema 3 Stain System; Fisher Diagnostics, USA). The stained migrated cells were imaged using Nikon TE2000E inverted microscope integrated with Nikon DS5 cooled CCD camera by 10× objective, brightfield illumination. Migrated cells from the captured images per membrane were counted using NIH image software. Migration was normalized to the percent of migration toward VEGF of HUVEC which were not incubated with any compound. The extent of migration is inversely proportional to the anti-angiogenesis activity of the compounds.

Data set [5] has as its target Cathepsin B (Homo sapiens, UniProt P07858). Briefly: Release of PTX from conjugates in the presence of Cathepsin B. Format: in vitro ADME. Here is the method:
The ability of Cathepsin B to cleave and therefore release PTX from PGA copolymer-E-c(RGDfk)2-PTX (SEQ ID NO:18) was assessed as follows:
Cathepsin B (5 U) was added last to a 1 ml solutions containing 3 mg of the tested conjugates and 20 mM sodium acetate, 2 mM EDTA and 5 mM DTT at a pH of 6 and at a temperature of 37° C. Solutions containing free PGA polymer and free PTX served as control. Sample aliquots (100 μl) were taken at various time points up to 72 hours, frozen and stored in liquid nitrogen, until assayed by HPLC (by Porous50 resin) and/or by Gel permeation chromatography (GPC; direct analysis of 50 μl aliquots). PGA polymer incubated in buffer alone (without addition of cathepsin B) served as an additional control to assess non-enzymatic hydrolytic cleavage. The amount of free PTX released from the tested compounds was assessed by HPLC (X=220 nm). Doxycycline was used as internal standard in all cases. In addition, an LC-MS analysis of the released compounds was also carried out to in order determine the major metabolites released. The MW of the conjugates was determined by diluting 50 μl aliquots of the conjugate containing solution to a final volume of 200 μl with PBS buffer and subjecting the aliquots to GPC analysis (Viscotek TDA detector).

Data set [6] deals with HUVEC. Briefly: Capillary-like tube formation assay. It counts as cell-based, human. The following applies: equivalent concentrations of 10 nM (PTX) and 19 nM (E-[c(RGDfk)2]); conjugate with 5 mol % E-[c(RGDfk)2], 2.6 mol % PTX; FIG. 16B. Here is the method: The anti-angiogenesis activity of the conjugates was evaluated by the effect of the conjugates on the ability of HUVEC cells to form capillary-like tube structures.
The surface of 24-well plates was coated with Matrigel matrix (50 μl/well) (BD Biosciences, USA) on ice and was then allowed to polymerize at 37° C. for 30 minutes. HUVEC (3×10^4 cells) were challenged with the tested compounds, and were seeded on coated plates in the presence of complete EGM-2 medium. After 8 hours of incubation (37° C.; 5% CO2), wells were imaged using Nikon TE2000E inverted microscope integrated with Nikon DS5 cooled CCD camera by 4× objective, brightfield technique. During the tube formation assay endothelial cells directionally migrate to align, branch and form polygonal networks (i.e. tube like structures). The extent of capillary-like tube structures is inversely proportional to the anti-angiogenesis activity of the compounds.

Data set [7] concerns mCherry-labeled U87 human osteosarcoma tumors. Put plainly: In vivo accumulation of OG-labeled conjugates in tumors, confocal microscopy. On the set-up: species or system SCID mice. The following applies: i.v., 50 μM-RGD; tumors removed one hour after injection; FIG. 17A. An excerpt: SCID male were inoculated s.c. with 2×10^6 mCherry-labeled U87 human […] or with 5×10^6 mCherry-labeled MG-63 human osteosarcoma. […] One hour after injection, tumors were removed, dissected to thin slices and examined under Zeiss Meta LSM 510 confocal imaging system.
Cellular colocalization of OG labeled PGA-E-[c(RGDfk)2] (SEQ ID NO: 25) conjugate was monitored utilizing a Zeiss Meta LSM 510 confocal imaging systems with 40 oil objectives. All images were taken using a multi-track channel acquisition to prevent emission cross-talk between fluorescent dyes. Single XY, XZ plane-images were acquired in 1024×1024 resolution.

For data set [8], the target named is T1, αvβ3 integrin receptor (Homo sapiens, UniProt P05106+P06756).
T1 construct: endogenous in cells; host or cells: HUVEC
Briefly: αvβ3 interaction with fluorescently labeled conjugates in HUVEC. It counts as cell-based. Here is the method: A fluorescence probe, Oregon Green-cadaverine (OG), was conjugated to PGA conjugates through the free carboxylic groups (see Example 5 for synthesis description), in order to study the cellular uptake and trafficking.
HUVEC were plated onto 6 mm plates (5×10^5 cells/plate) in EBM-2 (Cambrex, USA) supplemented with 5% FBS. Following 24 hours of incubation (37° C.; 5% CO2), cells were challenged with either PGA-OG, PGA-c(RADfk)-OG (SEQ ID NO: 24) or PGA-E-[c(RGDfk)2]-OG (SEQ ID NO:25) diluted in EGM-2 medium for 5, 10, 15, 30 or 60 minutes. Cells were then washed in PBS (×3), harvested with PBS containing 2.5 mM EDTA and analyzed with the ImageStream 100 imaging flow cytometer (Amnis). Analysis was performed using IDEAS software.

A short description of data set [9]: Hydrodynamic diameter by Nanoparticle Tracking Analysis. The conditions noted are these: PTX loading of 2.3 mol % and -E-c(RGDfk) loading of 5 mol %; PBS; FIG. 9C. Format: physicochemical. Here is the method:
The mean hydrodynamic diameter of the PGA conjugates was evaluated using a real time particle analyzer (NanoSight LM20™) containing a solid-state, single mode laser diode (<20 mW, 655 nm) configured to launch a finely focused beam through a 500 μl sample chamber. The tested conjugate was dissolved in PBS to a final concentrations of 9.9 mg/ml. The samples were then injected into the chamber by syringe and allowed to equilibrate to a unit temperature (23° C.) for 30 seconds. The particles dynamics were visualized at 30 frames per second (fps) for 60 seconds at 640×480 resolution by the device CCD camera. The paths the particles take under Brownian motion over time were analyzed using Nanoparticle Tracking Analysis (NTA) software. […] Each sample was measured three times in triplicates, and the results represent the mean diameter.

Setting [10] is: HUVEC proliferation, nM PTX, FIG. 13A (5 mol % E-[c(RGDfk)2], 2.6 mol % PTX) and FIG. 13B (monocyclic), read-out: IC50, bell shaped effect, higher value.
Where [11] appears, read: HUVEC proliferation, nM PTX, FIG. 13A (5 mol % E-[c(RGDfk)2], 2.6 mol % PTX) and FIG. 13B (monocyclic), read-out: IC50, bell shaped effect, lower value.
Setting [12] is: HUVEC, 72 hours, bis-cyclic RGD compounds (X = 2), NA = did not reach IC50 in the concentrations used, 'a -- b' = bell-shaped curve, read-out: IC50 (nM) of PGA- PTX-E-[c(RGDfk)2] (SEQ ID NO: 18) 2.6 mol % PTX, 5 mol % RGD.

Where two headings read alike, the source gives them in different places.

T1 sequence (P06756 31-889 limits assumed): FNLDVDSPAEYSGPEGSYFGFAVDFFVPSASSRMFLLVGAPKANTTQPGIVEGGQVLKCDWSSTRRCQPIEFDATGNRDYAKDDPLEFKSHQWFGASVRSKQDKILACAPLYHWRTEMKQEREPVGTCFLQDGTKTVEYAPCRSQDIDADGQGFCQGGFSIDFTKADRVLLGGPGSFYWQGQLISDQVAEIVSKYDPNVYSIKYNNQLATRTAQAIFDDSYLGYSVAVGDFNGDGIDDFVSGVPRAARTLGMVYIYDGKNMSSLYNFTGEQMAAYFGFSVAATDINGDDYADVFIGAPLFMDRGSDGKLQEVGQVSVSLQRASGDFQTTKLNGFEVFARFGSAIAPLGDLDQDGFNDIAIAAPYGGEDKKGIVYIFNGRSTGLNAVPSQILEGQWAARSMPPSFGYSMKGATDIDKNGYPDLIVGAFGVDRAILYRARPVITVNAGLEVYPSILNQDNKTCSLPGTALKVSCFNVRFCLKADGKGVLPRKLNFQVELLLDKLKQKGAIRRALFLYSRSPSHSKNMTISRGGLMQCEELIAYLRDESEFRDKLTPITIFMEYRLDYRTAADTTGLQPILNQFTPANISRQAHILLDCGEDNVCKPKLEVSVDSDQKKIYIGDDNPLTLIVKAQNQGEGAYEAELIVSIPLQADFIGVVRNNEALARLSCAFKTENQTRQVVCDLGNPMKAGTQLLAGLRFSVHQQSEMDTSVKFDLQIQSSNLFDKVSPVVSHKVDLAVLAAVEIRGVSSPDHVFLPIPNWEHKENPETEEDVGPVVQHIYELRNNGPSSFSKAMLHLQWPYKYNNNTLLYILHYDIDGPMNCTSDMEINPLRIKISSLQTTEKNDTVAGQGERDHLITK
T1 sequence (P06756 891-1048 limits assumed): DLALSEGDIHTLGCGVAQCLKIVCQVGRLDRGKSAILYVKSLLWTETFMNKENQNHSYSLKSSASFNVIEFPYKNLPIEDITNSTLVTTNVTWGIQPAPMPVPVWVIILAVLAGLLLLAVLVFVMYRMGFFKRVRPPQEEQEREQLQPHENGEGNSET
T1 sequence (P05106 27-788): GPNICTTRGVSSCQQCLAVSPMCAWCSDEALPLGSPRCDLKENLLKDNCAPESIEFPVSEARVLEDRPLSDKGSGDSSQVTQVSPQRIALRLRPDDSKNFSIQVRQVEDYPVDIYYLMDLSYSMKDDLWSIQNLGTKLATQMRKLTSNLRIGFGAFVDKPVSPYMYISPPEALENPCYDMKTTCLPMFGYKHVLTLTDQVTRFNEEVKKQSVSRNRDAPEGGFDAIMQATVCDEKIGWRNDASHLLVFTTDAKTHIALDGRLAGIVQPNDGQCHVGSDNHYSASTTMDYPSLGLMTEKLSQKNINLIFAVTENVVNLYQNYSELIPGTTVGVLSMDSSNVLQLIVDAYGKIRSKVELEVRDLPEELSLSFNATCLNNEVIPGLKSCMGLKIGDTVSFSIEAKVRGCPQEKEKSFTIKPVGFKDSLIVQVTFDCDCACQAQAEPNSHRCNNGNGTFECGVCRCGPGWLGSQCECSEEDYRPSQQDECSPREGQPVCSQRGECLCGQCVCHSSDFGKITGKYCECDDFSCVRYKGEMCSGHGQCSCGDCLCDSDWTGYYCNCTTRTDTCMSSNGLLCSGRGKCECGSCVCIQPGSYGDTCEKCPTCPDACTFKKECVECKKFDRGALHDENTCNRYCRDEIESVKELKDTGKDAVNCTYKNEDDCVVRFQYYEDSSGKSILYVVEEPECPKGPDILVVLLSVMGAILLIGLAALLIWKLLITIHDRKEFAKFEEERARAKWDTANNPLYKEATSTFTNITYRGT

With “PGA-Copolymer -E-c(RGDfk)2-Paclitaxel [PGA-PTX-E-[c(RGDfk)2]]”, the IC50 in data set [1] (PANC02, 72 hours, bis-cyclic RGD compounds (X = 2), NA = did not reach IC50 in the concentrations used, read-out: IC50 (nM) of PGA- PTX-E-[c(RGDfk)2] (SEQ ID NO: 18) 5 mol % PTX, 3.9 mol % RGD) was 650 nM; in data set [1] (nM PTX, equivalent doses, FIG. 12C, read-out: IC50 of PANC02 proliferation), ~650 nM; in data set [2] (setting [10]), ~20 nM; in data set [2] (setting [11]), ~0.2 nM; in data set [2] (setting [12]), 25 nM. For the same substance, the “adhesion inhibition compared with the monocyclic conjugate PGA-PTX-E-c(RGDfk)” value in data set [3] (both loadings of the bis-cyclic conjugate) is on record as “inhibited the adhesion more effectively than the monocyclic RGDfk peptide conjugate”. In addition, the “adhesion inhibition compared with the other loading” value in data set [3] (conjugate with 3.9 mol % E-[c(RGDfk)2] and 5.5 mol % PTX versus conjugate with 5 mol % E-[c(RGDfk)2] and 2.6 mol % PTX) was “more effective than the second”. Besides, the “inhibition of the migration of HUVEC towards VEGF” value in data set [4] is reported as “about 40%”. Also, in [5] (conjugate with 3.9 mol % E-[c(RGDfk)2], 5.5 mol % PTX, pH 6, 37° C.), the “PTX release kinetics compared to the other conjugates” value is reported as “slightly faster release kinetics”. The “PTX release compared with the conjugate of 2.6 mol % PTX, 5 mol % E-[c(RGDfk)2]” value in data set [5] (conjugate with 5.5 mol % PTX, 3.9 mol % E-[c(RGDfk)2], after 48 hours) is “greater”. Besides, the “inhibition of the formation of tubular structures of HUVEC” value in data set [6] is on record as “about 40%”.

As to PGA-E-[c(RGDfk)2], the “accumulation of the conjugate at the tumor site” value in [7] is “able to accumulate in the tumor tissue”. Moreover, the “effect on HUVEC proliferation” value in data set [2] (FIG. 12A) is given as “only at high concentrations”. In addition, the IC50 in data set [2] (setting [12]) came to 2900 nM; in data set [2] (HUVEC, 72 hours, bis-cyclic RGD compounds (X = 2), NA = did not reach IC50 in the concentrations used, 'a -- b' = bell-shaped curve, read-out: IC50 (nM) of PGA- PTX-E-[c(RGDfk)2] (SEQ ID NO: 18) 5 mol % PTX, 3.9 mol % RGD), 7000 nM.

For the substance PGA-E-[c(RGDfk)2]-OG, in data set [7], the “accumulation of the conjugate at the tumor site” value is recorded as “high accumulation”. Besides, the “time at which conjugate-cell adherence was first observed” value in data set [8] (ImageStream 100 imaging flow cytometer) is 10 min. Further, the “extent of binding / uptake by HUVEC” value in [8] (OG fluorescence, FIGS. 11B, 11C) is “higher uptake”.

Regarding PGA-PTX-E-c(RGDfk), the IC50 in [2] (setting [10]) was ~20 nM; in data set [2] (setting [11]) it was ~0.2 nM. Further, the “inhibition of HUVEC adhesion to fibrinogen” value in [3] (equivalent concentrations of 50 μM RGD, FIG. 15) was ~50%. Besides, the mean hydrodynamic diameter result in [9] is given as “about 35 nm”.

The values above are taken from patent US9259482B2, “Conjugates of polymers having a therapeutically active agent and an angiogenesis targeting moiety attached thereto and uses thereof in the treatment of angiogenesis related diseases” (Ramot at Tel-Aviv University Ltd., priority 2008, dated 2016).
